According to patent EP4026700A1, “INPRINTING” (Smart Coloring GmbH, priority 2021, dated 2022):

Assay: Solubility in double distilled water
Type: physicochemical

Disperse Blue 56
solubility in double distilled water: about 14 mg/l
